Earlier results on three compounds are cited in publication PMC12104055 (Frontiers in Pharmacology, 2025).

Details of data set [1]: method as in Boosman et al., 2022. The settings on record: ref Boosman et al., 2022; cited from earlier work.
For data set [2] the following is noted: ref Nieminen et al., 2010; cited from earlier work.
On the set-up of data set [3]: method as in earlier work. The note with it: patients after organ transplantation, ref Prikis and Cameron, 2022, Liu et al., 2023, Michael et al.; cited from earlier work.

Consider `C#Cc1cccc(Nc2ncnc3cc(OCCOC)c(OCCOC)cc23)c1` [erlotinib], for which the “Pharmacokinetic exposure of 75 mg erlotinib orally with ritonavir versus 150 mg erlotinib orally” value in data set [1] is “comparable”.
On to `COc1ccc2c3c1O[C@H]1C(=O)CC[C@@]4(O)[C@@H](C2)N(C)CC[C@]314` [oxycodone], for which the “AUC of oxycodone when administered simultaneously with ritonavir” value in data set [2] is “triples”.
As for `C=CC[C@@H]1/C=C(\C)C[C@H](C)C[C@H](OC)[C@H]2O[C@@](O)(C(=O)C(=O)N3CCCC[C@H]3C(=O)O[C@H](/C(C)=C/[C@@H]3CC[C@@H](O)[C@H](OC)C3)[C@H](C)[C@@H](O)CC1=O)[C@H](C)C[C@@H]2OC` [tacrolimus], the “Concentration of tacrolimus during Paxlovid treatment” value in data set [3] is listed as “increase significantly”.
